Literature values in patent US20070190094A1, “PESTICIDAL COMPOSITIONS CONTAINING ISOPROPYL-CONTAINING COMPOUNDS AS PESTICIDALLY ACTIVE INGREDIENTS” (ECOSMART TECHNOLOGIES, INC., priority 2006, published 2007).

Tests used:
[1] = chronic toxicity studies; increased liver weights even at the lowest doses
[2] = animal studies; treatments as low as
[3] = U.S. Environmental Protection Agency classification
[4] = system: hepatic microsomal oxidase enzymes; conditions: in vivo

SMILES: CCCCOCCOCCOCc1cc2c(cc1CCC)OCO2 [PBO, piperonyl butoxide]
- lowest dose at which increased liver weights were shown [1]: 30 mg/kg/day
- treatment level at which hepatocellular carcinomas were shown [2]: 1.2%
- EPA carcinogen class [3]: class C possible human carcinogen
- effect on hepatic microsomal oxidase enzymes [4]: inhibit hepatic microsomal oxidase enzymes
